Results as given in US5883293A, “Conformationally constrained backbone cyclized peptide analogs” (Peptor Ltd., priority 1994, dated 1999).
Numbered stars: 1 amine (or outer) side, 2 acyl side, 3 side chain; on linkers, the order of the positions; unused ones are H or OH. Bridge positions count the residues as written; N and C are the ends. Square brackets hold non-standard residues; d marks the D form. Peptide text beside a SMILES is read from it. NGly(3-aminopropyl) = O=C(CN(CCCN[*:3])[*:1])[*:2]; N(2-Aminoethyl)Gly = O=C(CN(CCN[*:3])[*:1])[*:2]; N(CH2CH2CO)Gly = O=C(CN(CCC(=O)[*:3])[*:1])[*:2]; N(CH2CH2COOH)Gly = O=C(O)CCNCC(=O)O; Gly(N(CH2)3NH2) = NCCCNCC(=O)O

Columns and labels:
[1] = In vitro biostability in human serum (HPLC determination of peptide degradation); format: in vitro ADME; conditions: 37° C., FIG. 1
Method: FIG. 1 is a graph showing in vitro biostability of somatostatin and three analogs thereof in human serum. The graph depicts the percentage of undegraded molecules for each of the compounds initially and after various periods of time.
Resistance to biodegradation of SST analogs
The in vitro biostability of a SST cyclic peptide analog, PTR 3002, was measured in human serum, and was compared to the same sequence in a non-cyclic peptide analog (PTR 3001), to octreotide (Sandostatin), and to native somatostatin (SRIF). […] The assay was based on HPLC determination of peptide degradation as a function of time at 37° C.

[2] = test system: Somatostatin Receptor (SSTR) Subtype SSTR-2B; test: Inhibition of radioactive iodinated somatostatin (SRIF-14) binding, CHO cells expressing SSTR-2B; conditions: read-out: percent inhibition of SRIF-14 binding, SSTR-2B; for inhibition at 1 µM: Conc. 10^-6 M; for inhibition at 0.1 µM: Conc. 10^-7 M; for inhibition at 0.01 µM: Conc. 10^-8 M
Source text: (§1) Receptor binding specificity of cyclic peptide analogs
(§2) The values presented are percent inhibition of radioactive iodinated somatostatin (SRIF-14) binding.

[3] = target: Somatostatin Receptor (SSTR) Subtype SSTR-5 (Homo sapiens, UniProt P35346); test: Inhibition of radioactive iodinated somatostatin (SRIF-14) binding, CHO cells expressing SSTR-5; conditions: read-out: percent inhibition of SRIF-14 binding, SSTR-5; for inhibition at 1 µM: Conc. 10^-6 M; for inhibition at 0.1 µM: Conc. 10^-7 M; for inhibition at 0.01 µM: Conc. 10^-8 M
Source text: as §1, §2

[4] = Lack of toxicity of cyclized peptide analogs in rats; format: in vivo
Source text: Lack of toxicity of cyclized peptide analogs
These two doses are several orders of magnitude higher than those needed to elicit the desired endocrine effect. The peptides dissolved in saline produced no untoward side effects on the central nervous system, cardiovascular system, body temperature, nor on the periphery of the animals.

[5] = target: T1, bradykinin receptors (PC 12 cells) (Rattus norvegicus, UniProt P25023); test: Bradykinin antagonist assay: (3H)dopamine release from PC 12 cells; format: cell-based; conditions: at 10^-6 M; (3H)DA release stimulated by bradykinin, PC12 cells
T1 construct: PC 12 cells that express bradykinin receptors; endogenous in cells; host or cells: PC12 cells
T1 sequence (P25023 1-396): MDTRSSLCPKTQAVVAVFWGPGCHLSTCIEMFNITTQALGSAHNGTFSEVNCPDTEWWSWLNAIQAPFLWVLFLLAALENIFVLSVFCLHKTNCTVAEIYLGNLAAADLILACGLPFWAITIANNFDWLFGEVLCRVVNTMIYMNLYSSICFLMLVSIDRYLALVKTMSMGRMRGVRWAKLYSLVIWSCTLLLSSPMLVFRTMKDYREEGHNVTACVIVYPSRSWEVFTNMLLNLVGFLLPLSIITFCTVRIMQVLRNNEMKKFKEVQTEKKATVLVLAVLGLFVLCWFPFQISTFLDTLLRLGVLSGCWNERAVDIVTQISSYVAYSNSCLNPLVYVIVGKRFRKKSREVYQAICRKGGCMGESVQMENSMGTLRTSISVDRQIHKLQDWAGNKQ
Method: BRADYKININ ANTAGONIST ASSAY (Displacement of (^3 H)dopamine release from PC 12 cells)
Novel backbone cyclized peptide analogs of the present invention were assayed in vitro for bradykinin antagonist activity by protection of (^3 H)dopamine release from PC 12 cells that express bradykinin receptors. PC12 cells were grown in Dulbecco Modified Eagle's medium with high glucose, supplemented with 10% horse serum, 5% fetal calf serum, 130 units/ml penicillin and 0.1 mg/ml streptomycin. For experiments, cells were removed from the medium using 1 mmole EDTA and replated on collagen coated-12-well plates and assayed 24 hr later. Release of (^3 H)dopamine was determined as follows: cells were incubated for 1.5 hr at 37° C. with 0.5 ml of growth medium and […] (^3 H)DA (41 Ci/mmole) and […] pargyline followed by extensive washing with medium (3×1 ml) and release buffer consisting of (mM): 130 NaCl; 5 KCl; 25 NaHCO3; 1 NaH2 PO4; 10 glucose and 1.8 CaCl2. In a typical experiment, cells were incubated with 0.5 ml buffer for 5 consecutive incubation periods of 3 min each at 37° C. Spontaneous (^3 H)DA release was measured by collecting the medium released by the cells successively for the first 3 min period. Antagonists were added to the cells 3 min prior to stimulation (at the second period), and stimulation of (^3 H)DA release by 100 nmole of bradykinin are monitored during the 3 period by 60 mmole KCl. The remaining of the (^3 H)DA was extracted from the cells by over night incubation with 0.5 ml 0.1N HCl. (^3 H)DA release during each 3 min period was expressed as a % of the total (^3 H)DA content of the cells. Net evoked release was calculated from (^3 H)DA release during stimulation period after subtracting basal (^3 H)DA release in the preceding baseline period if not indicated otherwise.

[6] = target: T2, BK2 receptors (Cavia porcellus, UniProt O70526); test: Bradykinin antagonist assay: guinea-pig ileum contraction; conditions: at 10^-6 M, BK 2×10^-8 M, atropine 1 μM present
T2 construct: This tissue contains predominantly BK2 receptors; from tissue; host or cells: guinea-pig ileum, longitudinal muscle layer with adhering mesenteric plexus
T2 sequence (O70526 1-372): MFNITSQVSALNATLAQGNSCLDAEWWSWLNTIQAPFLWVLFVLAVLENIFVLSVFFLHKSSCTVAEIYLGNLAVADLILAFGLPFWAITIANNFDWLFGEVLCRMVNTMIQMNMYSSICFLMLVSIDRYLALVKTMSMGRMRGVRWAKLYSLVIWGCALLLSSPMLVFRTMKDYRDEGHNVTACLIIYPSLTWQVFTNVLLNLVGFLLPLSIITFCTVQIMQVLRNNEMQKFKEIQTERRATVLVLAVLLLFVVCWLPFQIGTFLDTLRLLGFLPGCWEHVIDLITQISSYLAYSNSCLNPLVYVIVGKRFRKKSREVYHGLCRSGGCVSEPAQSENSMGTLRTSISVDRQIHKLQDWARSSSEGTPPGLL
Method: The ileum of the guinea-pig was selected as the preparation for the bioassay. This tissue contains predominantly BK2 receptors. The preparation consists of the longitudinal muscle layer with the adhering mesenteric plexus. The isolated preparation was kept in Krebs solution and contractions were measured with an isometric force transducer. […] Atropine (1 μM) was always present.

Chain of Somatostatin Receptor (SSTR) Subtype SSTR-5 (P35346 whole entry): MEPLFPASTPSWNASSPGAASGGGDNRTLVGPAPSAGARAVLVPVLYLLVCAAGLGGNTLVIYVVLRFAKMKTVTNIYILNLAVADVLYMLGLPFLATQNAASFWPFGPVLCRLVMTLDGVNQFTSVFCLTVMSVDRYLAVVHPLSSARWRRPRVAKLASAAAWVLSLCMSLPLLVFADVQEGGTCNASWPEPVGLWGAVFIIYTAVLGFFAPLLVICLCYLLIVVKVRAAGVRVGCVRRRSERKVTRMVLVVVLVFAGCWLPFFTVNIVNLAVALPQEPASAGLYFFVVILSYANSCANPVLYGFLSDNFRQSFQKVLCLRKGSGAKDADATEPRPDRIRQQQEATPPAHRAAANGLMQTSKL
Chain of Somatostatin Receptor (SSTR) Subtype SSTR-2B (P30874 1-356 isoform P30874-2): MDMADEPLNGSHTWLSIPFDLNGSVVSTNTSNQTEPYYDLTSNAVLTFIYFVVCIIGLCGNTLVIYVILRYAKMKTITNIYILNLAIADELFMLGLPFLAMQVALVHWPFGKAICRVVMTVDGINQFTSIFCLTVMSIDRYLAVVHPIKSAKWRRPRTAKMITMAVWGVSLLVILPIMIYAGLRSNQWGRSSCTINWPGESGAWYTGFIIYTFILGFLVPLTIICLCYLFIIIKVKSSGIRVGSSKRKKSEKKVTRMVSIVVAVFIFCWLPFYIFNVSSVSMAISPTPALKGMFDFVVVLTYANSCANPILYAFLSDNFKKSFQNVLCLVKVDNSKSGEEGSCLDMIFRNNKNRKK

With `C[C@@H](O)[C@H](NC(=O)CN1CCNC(=O)CCN(C(=O)[C@H](N)Cc2ccccc2)CC(=O)N[C@@H](Cc2ccccc2)C(=O)N[C@H](Cc2c[nH]c3ccccc23)C(=O)N[C@@H](CCCCN)C(=O)N[C@@H]([C@@H](C)O)C1=O)C(N)=O` [PTR 3002] (H-[dF][N(CH2CH2CO)Gly]F[dW]KT[N(2-Aminoethyl)Gly]T-NH2; lactam 2-7) the “in vitro biostability in human serum” value [1] was “as stable as octreotide, is more stable than the corresponding non-cyclic structure, and is much more stable than SRIF”.
`C[C@@H](O)[C@H](NC(=O)CN(CCCN)C(=O)[C@@H](NC(=O)[C@H](CCCCN)NC(=O)[C@@H](Cc1c[nH]c2ccccc12)NC(=O)[C@H](Cc1ccccc1)NC(=O)CN(CC(=O)O)C(=O)[C@H](N)Cc1ccccc1)[C@@H](C)O)C(N)=O` [PTR 3005] gave an inhibition at 1 µM [2] of 0%, an inhibition at 0.1 µM [2] of 0% and an inhibition at 0.01 µM [2] of 0%. It also gave an inhibition at 1 µM [3] of 9%, an inhibition at 0.1 µM [3] of 0% and an inhibition at 0.01 µM [3] of 0%.
With `C[C@@H](O)[C@H](NC(=O)CN1CCCNC(=O)CCN(C(=O)[C@H](N)Cc2ccccc2)CC(=O)N[C@@H](Cc2ccccc2)C(=O)N[C@H](Cc2c[nH]c3ccccc23)C(=O)N[C@@H](CCCCN)C(=O)N[C@@H]([C@@H](C)O)C1=O)C(N)=O` [PTR 3007] (H-[dF][N(CH2CH2CO)Gly]F[dW]KT[NGly(3-aminopropyl)]T-NH2; lactam 2-7) the “respiratory disturbances, stereotyped behavior, muscle tone” value ([4]; rats observed for 4 hours post administration) was “no respiratory disturbances” and the “tolerability after single intraperitoneal application” value ([4]; rats, dose of 1.5 mg/kg) was “well tolerated”.
In the case of `C[C@@H](O)[C@H](NC(=O)CN(CCCN)C(=O)[C@@H](NC(=O)[C@H](CCCCN)NC(=O)[C@@H](Cc1c[nH]c2ccccc12)NC(=O)[C@H](Cc1ccccc1)NC(=O)CN(CCC(=O)O)C(=O)[C@H](N)Cc1ccccc1)[C@@H](C)O)C(N)=O` [PTR 3008] (H-[dF][N(CH2CH2COOH)Gly]F[dW]KT[Gly(N(CH2)3NH2)]T-NH2), the inhibition at 1 µM [2] is reported as 0%, the inhibition at 0.1 µM [2] is reported as 0% and the inhibition at 0.01 µM [2] is reported as 0%. It also gave an inhibition at 1 µM [3] of 15%, an inhibition at 0.1 µM [3] of 6% and an inhibition at 0.01 µM [3] of 0%.
With “Ada-(D)Arg-Arg-cyclo(N^α (1-(6-aminohexylene)Gly-Hyp-Phe-D-Asp)-D-Phe-Phe-Arg--OH [Example 1]” the “inhibition of BK activity” value [5] was 30%.
In the case of “Ada-D-Arg-Arg-N^α (6-acetamidohexylene)Gly-Hyp-Phe-D-Asp(NH-Me)-D-Phe-Phe-Arg--OH [Example 2]”, the “inhibition of BK activity” value [6] is reported as 0% and the “inhibition of BK activity” value [5] is reported as 0%.
With “H-D-Arg-Arg-cyclo(N^α (4-propanoyl)Gly-Hyp-Phe-N^α (3-amido-propyl)-S-Phe)-Ser-D-Phe-Phe-Arg--OH [Example 4]” the “inhibition of BK activity” value [5] was 17%.
